“Also recorded” adds a separate entry of the source.
How the values were obtained:
[1] = test system: SW1573 human lung cancer cells; assay: 2H2O stable isotope incorporation into tubulin dimers and microtubule polymers in cultured cells; assay type: cell-based
Procedure: To determine whether biosynthetic labeling with ^2H2O can reveal MTPA effects on microtubule dynamics in actively proliferating cells, SW1573 human lung cancer cells were cultured and labeled during exponential growth with culture media containing 4% ^2H2O for 2, 6, 12, 24 and 36 hr, respectively. Tubulin dimer and polymer fractions were isolated from post-nuclear supernatants, and tubulin was purified from each fraction to ≧90% purity as determine by SDS-PAGE. After acid hydrolysis, amino acids were derivatized for GC/MS analysis with negative chemical ionization, and ^2H-label incorporation into the alanine derivative was quantified as the increase over natural abundance of the (M+1) mass isotopomer (“^2H—enrichment”; FIG. 3). […] The data support that in actively dividing cells, tubulin dimers and polymers are in a kinetic equilibrium on a time scale of hours. […] This indicates a substantial inhibition of ^2H—tubulin dimer flux into polymer, reflective of the ability of paclitaxel to stabilize microtubules and thus to prevent dynamic instability.

[2] = test system: SW1573 human lung cancer cells implanted into nude mice; assay: 2H label incorporation into tubulin dimers and polymers in implanted SW1573 tumors in vivo
Procedure: (§1) The tumors were allowed to grow to approximately 1000 mm^3 […]; mice were then injected intraperitoneally with increasing doses of paclitaxel. ^2H2O (8%) in drinking water was administered for a 24 hr period, resulting in about 5% ^2H enrichment in body water (the balance being metabolic water). Animals were sacrificed 24 hours after drug treatment, and tumor tissue was removed for analysis of ^2H—label incorporation into tubulin dimers and polymers (FIG. 4).

[3] = test system: MCF-7 human breast cancer cells implanted into nude mice; assay: 2H label incorporation into tubulin dimers and polymers in implanted MCF-7 tumors in vivo
Procedure: as §1
Qualitatively similar effects of paclitaxel were also seen in implanted MCF-7 tumors, though the amount of ^2H—label incorporation was lower than in SW1573 tumors (FIG. 4B).

[4] = test system: SW1573 human lung cancer cells implanted into nude mice; assay: Microtubule dynamics compared to de novo DNA synthesis (cell proliferation) in SW1573 tumors; assay type: in vivo; conditions: varying doses of paclitaxel; 2H2O for 24 hours (FIG. 5A)
From the text: (§2) Microtubule dynamics were expressed as (^2H enrichment in polymer)/(^2H enrichment in dimer). Inhibition of de novo DNA synthesis was quantified as the reduction in ^2H label incorporation into tumor cell DNA. […]
(§3) Various factors can interfere with the actions of paclitaxel in tumors, including alterations in tubulin isotype content, efflux pumps, and in vivo drug metabolism. Regardless of these factors, inhibition of microtubule dynamics, if related to the antiproliferative activity of MTPAs in vivo, should correlate with inhibition of cell proliferation. […] Thus, the inhibition of microtubule dynamics appeared to have a measurable impact on and relation to the in vivo antiproliferative action of MTPAs.

[5] = test system: MCF-7 human breast cancer cells implanted into nude mice; assay: Microtubule dynamics compared to de novo DNA synthesis (cell proliferation) in MCF-7 tumors; assay type: in vivo; conditions: varying doses of paclitaxel; 2H2O for 24 hours (FIG. 5B)
From the text: as §2, §3

microtubules = conditions: fold lower than maximum tolerated therapeutic dose
[6] = test system: sciatic nerve microtubules; assay: Densitometric analysis of free tubulin and microtubule abundance in sciatic nerve; conditions: tumor-bearing mice (FIG. 6B)
Procedure: (§4) In order to evaluate neurotoxic effects of paclitaxel, the sciatic nerve was isolated from tumor-bearing mice and ^2H label incorporation into free tubulin was compared with ^2H label incorporation into polymerized microtubuies (FIG. 6). […] To explore this effect further, net changes in the abundance of unpolymerized free tubulin and microtubules was assessed by densitometric analysis (FIG. 6B).

[7] = test system: sciatic nerve microtubules; assay: Sciatic nerve microtubule dynamics (2H label incorporation into free tubulin and polymerized microtubules); conditions: higher doses of paclitaxel; tumor-bearing mice (FIG. 6A)
Procedure: as §4

[8] = at ≧5 mg/kg i.p., 2H2O for 24 hours (FIG. 4A)
[9] = increasing doses i.p., 24 hr 2H2O (8%) in drinking water
[10] = at ≧5 mg/kg i.p., 2H2O for 24 hours (FIG. 4B)

CC(=O)O[C@H]1C(=O)[C@@]2(C)[C@H]([C@H](OC(=O)c3ccccc3)[C@]3(O)C[C@H](OC(=O)[C@H](O)[C@@H](NC(=O)c4ccccc4)c4ccccc4)C(C)=C1C3(C)C)[C@]1(OC(C)=O)CO[C@@H]1C[C@@H]2O [paclitaxel]
2H-enrichment in labeled polymers ([1]; 0.4 µM paclitaxel, 4% 2H2O, 36 hours (FIG. 3B)): reduced ^2H-enrichment in labeled polymers
reduction of rate of 2H incorporation into polymers compared to rate of label incorporation into the dimer ([1]; media containing 4% 2H2O, up to 36 hr): 75%
de novo synthesis of tubulin dimer [2, 8]: increased de novo synthesis of tubulin dimer
label incorporation into polymer [2, 8]: inhibited label incorporation into polymer
fractional synthesis of tubulin dimers [2, 9]: fractional synthesis of tubulin dimers increased
incorporation of 2H-tubulin into microtubules [2, 9]: decreased incorporation of ^2H—tubulin into microtubules in a dose-dependent manner
paclitaxel-dependent reduction of 2H-label polymer ([3]; 5 and 10 mg/kg doses, compared with SW1573 tumors): less pronounced, albeit statistically significant
de novo synthesis of tubulin dimer [3, 10]: increased de novo synthesis of tubulin dimer
label incorporation into polymer [3, 10]: inhibited label incorporation into polymer
upregulation of tubulin fractional synthesis over baseline ([3]; increasing doses i.p., 24 hr 2H2O): no significant paclitaxel-induced upregulation of tubulin fractional synthesis over baseline
relation between inhibition of microtubule dynamics and inhibition of de novo DNA synthesis (tumor cell proliferation) [4]: strong relationship; also recorded: strong correlation between inhibition of microtubule dynamic instability and reduction in cell proliferation
relation between inhibition of microtubule dynamics and inhibition of de novo DNA synthesis (tumor cell proliferation) [5]: strong relationship; also recorded: strong correlation between inhibition of microtubule dynamics and reduction in cell proliferation
doses with significant effects on microtubule dynamics, relative to the maximum tolerated therapeutic dose (microtubules): up to 30 fold
amount of free tubulin dimers (sciatic nerve, densitometry) [6]: slight decrease in free tubulin dimers
2H label incorporation into polymers (sciatic nerve) [7]: increased the label incorporation into polymers
2H labeling of free tubulin (sciatic nerve) [7]: slightly decreasing labeling of free tubulin
